Experimental data as given in patent US12643886B2 (Ontario Institute for Cancer Research (OICR), priority 2021, dated 2026).

Tests used:
[1] = molecular target: T1, NUAK2 (h) (Homo sapiens, UniProt Q9H093); assay: NUAK2 enzymatic assay (radiometric, Eurofins); type: biochemical; conditions: full-length recombinant enzyme
T1 construct: This assay was done radiometrically using full-length, recombinant enzyme; purchased Eurofins
T1 sequence (Q9H093 1-628): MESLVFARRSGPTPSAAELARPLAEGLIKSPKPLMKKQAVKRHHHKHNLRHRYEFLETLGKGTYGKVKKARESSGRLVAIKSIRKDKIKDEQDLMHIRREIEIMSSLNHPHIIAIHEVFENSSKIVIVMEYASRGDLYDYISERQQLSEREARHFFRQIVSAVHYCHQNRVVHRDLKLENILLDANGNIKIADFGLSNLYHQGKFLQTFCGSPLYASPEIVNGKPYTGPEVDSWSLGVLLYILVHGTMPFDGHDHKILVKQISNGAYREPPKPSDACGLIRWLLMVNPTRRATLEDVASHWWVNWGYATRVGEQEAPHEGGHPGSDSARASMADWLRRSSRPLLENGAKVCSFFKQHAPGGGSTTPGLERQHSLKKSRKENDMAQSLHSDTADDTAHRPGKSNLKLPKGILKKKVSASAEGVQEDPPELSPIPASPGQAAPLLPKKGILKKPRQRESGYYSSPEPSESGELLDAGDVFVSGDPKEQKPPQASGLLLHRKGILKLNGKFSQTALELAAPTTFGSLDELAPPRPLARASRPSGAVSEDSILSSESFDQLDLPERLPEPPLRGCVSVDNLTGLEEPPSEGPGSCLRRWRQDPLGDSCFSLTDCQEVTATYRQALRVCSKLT
Method in brief: (§1)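 Full-length recombinant NUAK2 incubated 40 min at room temperature in 8 mM MOPS pH 7.0, 0.2 mM EDTA, 10 mM magnesium acetate, 300 μM peptide substrate and 33P-ATP. Stopped with 0.5% phosphoric acid; filter-bound label counted by scintillation. IC50 reported as ranges; NUAK1 and Aurora A served as counter-screens.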

[2] = molecular target: T2, Aurora A (Homo sapiens, UniProt O14965); assay: Counter-screen against Aurora A; type: biochemical; conditions: read-out: AUR-A (IC50)
T2 sequence (O14965 1-403): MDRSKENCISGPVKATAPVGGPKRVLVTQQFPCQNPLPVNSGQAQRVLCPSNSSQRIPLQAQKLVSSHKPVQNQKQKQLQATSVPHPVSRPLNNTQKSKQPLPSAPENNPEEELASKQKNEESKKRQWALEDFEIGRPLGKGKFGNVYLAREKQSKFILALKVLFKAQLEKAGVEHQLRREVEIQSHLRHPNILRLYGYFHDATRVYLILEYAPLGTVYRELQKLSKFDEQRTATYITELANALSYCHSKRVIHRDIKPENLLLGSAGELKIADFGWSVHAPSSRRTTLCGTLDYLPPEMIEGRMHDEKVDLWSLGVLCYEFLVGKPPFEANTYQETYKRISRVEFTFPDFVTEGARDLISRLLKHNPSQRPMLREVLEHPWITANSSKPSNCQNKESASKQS
Method in brief: as §1

[3] = test system: MDA-MB-231 cells; assay: Tumor cell growth inhibition assay (ATPlite, 5 days); type: cell-based; conditions: Homo sapiens, 120 h; breast tumor cell line MDA-MB-231, 5 days
Method: MDA-MB-231 cells were seeded into a 384-well plate at 1,000 cells/well in 50 μl medium (Alpha-MEM containing 10% FBS, […] Normocin, Invivogen and […] Gentamycin, Invitrogen). Plates were then incubated overnight for the cells to attach. An HP D300 digital dispenser was used to dose cells with DMSO or test compounds across a 16-point range of concentrations (high dose of 10 uM to low dose of 5 nM). Plates were incubated in a humidified 5% CO2 incubator at 37° C. After 5 days, plates were removed from the incubator and equilibrated to room temperature. An equal volume of ATPlite assay reagent was then added to each well, and samples processed according to manufacturer's instructions (Perkin Elmer). Luminescent signals were then measured using an Envision plate reader equipped with a US-Luminescence detector.

[4] = molecular target: T3, NUAK1 (Homo sapiens, UniProt O60285); assay: Counter-screen against NUAK1; type: biochemical
T3 sequence (O60285 1-661): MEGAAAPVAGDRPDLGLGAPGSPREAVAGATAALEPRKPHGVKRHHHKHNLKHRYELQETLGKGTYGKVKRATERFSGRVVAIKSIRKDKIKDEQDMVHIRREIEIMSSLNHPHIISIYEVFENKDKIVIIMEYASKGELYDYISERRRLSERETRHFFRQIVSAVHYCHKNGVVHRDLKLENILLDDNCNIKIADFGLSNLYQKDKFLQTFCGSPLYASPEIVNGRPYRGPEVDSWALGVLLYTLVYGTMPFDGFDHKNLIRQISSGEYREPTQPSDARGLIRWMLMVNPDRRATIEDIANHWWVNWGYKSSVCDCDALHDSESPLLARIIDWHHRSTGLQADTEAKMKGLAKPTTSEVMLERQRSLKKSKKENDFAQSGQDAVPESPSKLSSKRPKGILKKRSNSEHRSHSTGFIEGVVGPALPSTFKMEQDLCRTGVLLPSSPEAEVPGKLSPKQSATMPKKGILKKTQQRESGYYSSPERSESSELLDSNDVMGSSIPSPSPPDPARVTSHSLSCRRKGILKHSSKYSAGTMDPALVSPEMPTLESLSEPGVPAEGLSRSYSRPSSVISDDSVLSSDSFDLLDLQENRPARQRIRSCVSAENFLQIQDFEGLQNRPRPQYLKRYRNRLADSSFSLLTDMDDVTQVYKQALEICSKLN
Method in brief: as §1

[5] = test system: Clover-YAP expressing MDA-MB-231 cells; assay: Cell-based YAP/TAZ localization assay (live imaging of Clover-YAP); conditions: MDA-MB-231 breast cancer cell line, FIG. 1
Method: Compounds of the application were tested for their ability to inhibit localization of YAP/TAZ to the nucleus of cells using an assay generally described in Nature Communications, 2018, 9:3510. Live cell imaging of Clover-YAP expressing MDA-MB-231 cells was carried out using a custom WAVE-FX-X1 spinning disc confocal system (Quorum Technologies) with a modified Yokogawa CSU-X1 scanhead on an AxioObserver Z1 inverted microscope (Carl Zeiss) with a ×40 NA 1.2 Plan Apochromat (Carl Zeiss) objective. Cells were plated in a 35 mm glass-bottom dish (Mat-Tek, P35G-1.5-14-C) and were maintained in a stage-top incubator at 37° C. and 5% CO2 during imaging. Cells were cultured in phenol-red free RPMI medium (Thermo Fisher Scientific, 11835030) with 5% FBS and 200 nM SiR-DNA (Spirochrom, SC007) was added 1 h prior to imaging to visualize the nuclei. Localization of Clover-YAP was monitored every 10 min for 2 h. Volocity software was used for image acquisition and processing.

[6] = test system: several cancer cell lines; conditions: immunofluorescence; cited from earlier work
[7] = test system: several cancer cell lines; conditions: PCR; cited from earlier work

SMILES	IC50 [1] [nM]	IC50 [2] [nM]	IC50 [3] [nM]	IC50 [4] [nM]	Inhibition of nuclear localization of YAP/TAZ [5]	YAP/TAZ nuclear localization [6]	YAP/TAZ transcriptional function (target gene expression) [7]
O=C1NCc2cccc(Nc3nc(Nc4ccc(N5CCNCC5)cc4OC(F)F)ncc3C(F)(F)F)c21 [Compound I-34, 7-((2-((2-(difluoromethoxy)-4-(piperazin-1-yl)phenyl)amino)-5-(trifluoromethyl)pyrimidin-4-yl)amino)isoindolin-1-one]	11 to 100	> 1000	32	11 to 100	potently inhibit nuclear localization of YAP/TAZ		
O=C1NCc2cccc(Nc3nc(Nc4ccc(N5C[C@@H]6C[C@H]5CN6)cc4OC(F)F)ncc3C(F)(F)F)c21 [Compound I-54, 7-((2-((4-((1S,4S)-2,5-diazabicyclo[2.2.1]heptan-2-yl)-2-(difluoromethoxy)phenyl)amino)-5-(trifluoromethyl)pyrimidin-4-yl)amino)isoindolin-1-one]	0.1 to 10	> 1000	48	11 to 100			
O=C1NCc2cccc(Nc3nc(Nc4ccc(N5C[C@H]6CNC[C@H]6C5)cc4OC(F)F)ncc3C(F)(F)F)c21 [Compound I-56, 7-((2-((2-(difluoromethoxy)-4-((3aR,6aS)-hexahydropyrrolo[3,4-c]pyrrol-2(1H)-yl)phenyl)amino)-5-(trifluoromethyl)pyrimidin-4-yl)amino)isoindolin-1-one]	11 to 100	101 to 1000	43	11 to 100			
O=C1NCc2cccc(Nc3nc(Nc4ccc(N5C[C@H]6CC[C@@H](C5)N6)cc4OC(F)F)ncc3C(F)(F)F)c21 [Compound I-59, 7-((2-((4-((1R,5S)-3,8-diazabicyclo[3.2.1]octan-3-yl)-2-(difluoromethoxy)phenyl)amino)-5-(trifluoromethyl)pyrimidin-4-yl)amino)isoindolin-1-one]	0.1 to 10	101 to 1000	54	11 to 100			
COc1cc(CN(C)C)ccc1Nc1ncc(Cl)c(Nc2cccc3c2C(=O)NC3)n1 [Compound I-63, 7-((5-chloro-2-((4-((dimethylamino)methyl)-2-methoxyphenyl)amino)pyrimidin-4-yl)amino)isoindolin-1-one]	0.1 to 10	101 to 1000	398	11 to 100			
CN1CCN(c2ccc(Nc3ncc4cc(C#N)c(=O)n(C5CCCC5)c4n3)cc2)CC1 [ON123300]						a block of YAP/TAZ nuclear localization	attenuates transcriptional function
CCC(=O)Nc1cccc(Oc2nc(Nc3ccc(N4CCN(C)CC4)cc3OC)ncc2Cl)c1 [WZ4003]						a block of YAP/TAZ nuclear localization	attenuates transcriptional function
